{
  "source": "patent US8273686B2",
  "about": "“Method for combating phytopathogenic fungi” (priority 2006, dated 2012)",
  "format_in_all_cases": "cell-based",
  "key": {"[1]": {"test_system": "Phaeoacremonium aleophilum", "assay": "Microtitre test, growth inhibition (optical density 405 nm)", "conditions": "tested at 125, 31, 8, 2, 0.5 and 0.125 ppm a.i.; 7 and 14 days' incubation at 23° C.", "description": "(§1) The products were provided as technical quality active ingredient. Stock solutions of the active ingredients were prepared in DMSO at a concentration of 10 000 ppm a.i. All products were tested at 125, 31, 8, 2, 0.5 and 0.125 ppm a.i.; the DMSO concentration was the same in all dilutions.\n(§2) Spore suspensions of the test fungi were prepared in a yeast extract, Bacto peptone and glycerol liquid medium.\n(§3) Equal volumes of test compound and spore suspension were added, in triplicate, to the wells of 96-well microtitre plates. The optical densities of the wells were measured with the aid of a photometer at 405 nm immediately after preparation.\n(§4) Incubation of the plates followed at 23° C. Further optical density measurements were made after 7 and 14 days' incubation. Growth in the treated wells was compared with the growth in the control (=water) wells."}, "[2]": {"test_system": "Phaeomoniella chlamydospora", "assay": "Microtitre test, growth inhibition (optical density 405 nm)", "conditions": "tested at 125, 31, 8, 2, 0.5 and 0.125 ppm a.i.; 7 and 14 days' incubation at 23° C.", "description": "as §1, §2, §3, §4"}, "[3]": {"test_system": "Ganoderma sp.", "assay": "Mycelium growth inhibition on PDA Petri dishes", "conditions": "mean of 3 repetitions", "description": "(§5) The concentrations of active ingredient added to the culture medium were determined previously by diffusion of the product in agar inoculated for the corresponding species.\n(§6) Subsequently the diameters of the pathogen growths (mm) were determined visually until the […] (pathogen in PDA medium without fungicide) fully colonised the Petri dishes.\n(§7) Levels of inhibition of mycelium growth for different fungal species in relation to fungicide concentration. The results are expressed as percentages and represent the mean of 3 repetitions"}, "[4]": {"test_system": "Botryosphaeria sp.", "assay": "Mycelium growth inhibition on PDA Petri dishes", "conditions": "mean of 3 repetitions", "description": "(§8) Test pathogens were Phaeoacremonium sp., Phaemoniella chlamydospora and Fomitiporella vitis (pathogens associated with the Esca disease) as well as Cylindrocarpon destructans and Botryosphaeria sp. (pathogens frequently isolated from vine wood with Esca symptoms).\nas §5, §6, §7"}, "[5]": {"test_system": "Cylindrocarpon destructans", "assay": "Mycelium growth inhibition on PDA Petri dishes", "conditions": "mean of 3 repetitions", "description": "as §8, §5, §6, §7"}, "[6]": {"test_system": "Fomitiporella vitis", "assay": "Mycelium growth inhibition on PDA Petri dishes", "conditions": "mean of 3 repetitions", "description": "as §8, §5, §6, §7"}, "[7]": {"test_system": "Phaeoacremonium sp.", "assay": "Mycelium growth inhibition on PDA Petri dishes", "conditions": "mean of 3 repetitions", "description": "as §8, §5, §6, §7"}, "[8]": {"test_system": "Phaeomoniella chlamydospora", "assay": "Mycelium growth inhibition on PDA Petri dishes", "conditions": "mean of 3 repetitions", "description": "as §8, §5, §6, §7"}, "[9]": {"conditions": "0.1 ppm active ingredient (as Comet)"}, "[10]": {"conditions": "1 ppm active ingredient (as Comet)"}, "[11]": {"conditions": "10 ppm active ingredient (as Comet)"}, "[12]": {"conditions": "100 ppm active ingredient (as Comet)"}, "[13]": {"conditions": "1000 ppm active ingredient (as Comet)"}},
  "data": [
    {"smiles": "COC(=O)N(OC)c1ccccc1COc1ccn(-c2ccc(Cl)cc2)n1", "note": "[pyraclostrobin]", "values": [
      {"measurement": "inhibition of the growth of Phaeoacremonium aleophilum", "setting": "[1]", "value": "strong to very strong"},
      {"measurement": "inhibition of the growth of Phaeomoniella chlamydospora", "setting": "[2]", "value": "strong to very strong"},
      {"measurement": "Percentage mycelium inhibition", "setting": "[3]; [9]", "value": 21.18, "unit": "%"},
      {"measurement": "Percentage mycelium inhibition", "setting": "[3]; [10]", "value": 65.88, "unit": "%"},
      {"measurement": "Percentage mycelium inhibition", "setting": "[3]; [11]", "value": 91.37, "unit": "%"},
      {"measurement": "Percentage mycelium inhibition", "setting": "[3]; [12]", "value": 100.00, "unit": "%"},
      {"measurement": "Percentage mycelium inhibition", "setting": "[3]; [13]", "value": 100.00, "unit": "%"},
      {"measurement": "Percentage mycelium inhibition", "setting": "[4]; [9]", "value": 23.14, "unit": "%"},
      {"measurement": "Percentage mycelium inhibition", "setting": "[4]; [10]", "value": 48.04, "unit": "%"},
      {"measurement": "Percentage mycelium inhibition", "setting": "[4]; [11]", "value": 66.08, "unit": "%"},
      {"measurement": "Percentage mycelium inhibition", "setting": "[4]; [12]", "value": 88.43, "unit": "%"},
      {"measurement": "Percentage mycelium inhibition", "setting": "[4]; [13]", "value": 100.00, "unit": "%"},
      {"measurement": "Percentage mycelium inhibition", "setting": "[5]; [9]", "value": 33.33, "unit": "%"},
      {"measurement": "Percentage mycelium inhibition", "setting": "[5]; [10]", "value": 69.61, "unit": "%"},
      {"measurement": "Percentage mycelium inhibition", "setting": "[5]; [11]", "value": 86.67, "unit": "%"},
      {"measurement": "Percentage mycelium inhibition", "setting": "[5]; [12]", "value": 90.59, "unit": "%"},
      {"measurement": "Percentage mycelium inhibition", "setting": "[5]; [13]", "value": 100.00, "unit": "%"},
      {"measurement": "Percentage mycelium inhibition", "setting": "[6]; [9]", "value": 46.47, "unit": "%"},
      {"measurement": "Percentage mycelium inhibition", "setting": "[6]; [10]", "value": 92.75, "unit": "%"},
      {"measurement": "Percentage mycelium inhibition", "setting": "[6]; [11]", "value": 98.62, "unit": "%"},
      {"measurement": "Percentage mycelium inhibition", "setting": "[6]; [12]", "value": 100.00, "unit": "%"},
      {"measurement": "Percentage mycelium inhibition", "setting": "[6]; [13]", "value": 100.00, "unit": "%"},
      {"measurement": "Percentage mycelium inhibition", "setting": "[7]; [9]", "value": 35.65, "unit": "%"},
      {"measurement": "Percentage mycelium inhibition", "setting": "[7]; [10]", "value": 61.00, "unit": "%"},
      {"measurement": "Percentage mycelium inhibition", "setting": "[7]; [11]", "value": 77.27, "unit": "%"},
      {"measurement": "Percentage mycelium inhibition", "setting": "[7]; [12]", "value": 88.28, "unit": "%"},
      {"measurement": "Percentage mycelium inhibition", "setting": "[7]; [13]", "value": 100.00, "unit": "%"},
      {"measurement": "Percentage mycelium inhibition", "setting": "[8]; [9]", "value": 64.91, "unit": "%"},
      {"measurement": "Percentage mycelium inhibition", "setting": "[8]; [10]", "value": 93.57, "unit": "%"},
      {"measurement": "Percentage mycelium inhibition", "setting": "[8]; [11]", "value": 95.32, "unit": "%"},
      {"measurement": "Percentage mycelium inhibition", "setting": "[8]; [12]", "value": 96.49, "unit": "%"},
      {"measurement": "Percentage mycelium inhibition", "setting": "[8]; [13]", "value": 100.00, "unit": "%"}
    ]},
    {"smiles": "CO/N=C(/C(=O)OC)c1ccccc1COc1ccccc1C", "note": "[kresoxim-methyl]", "values": [
      {"measurement": "inhibition of the growth of Phaeomoniella chlamydospora", "setting": "[2]", "value": "strong to very strong"}
    ]}
  ]
}
